# In patent US11497210B2, “Compositions and methods for long lasting disinfection” (RHODIA OPERATIONS, priority 2018, dated 2022):
# Experiments:
# Enterobacter aerogenes [1] = assay: RSS-12 h residual self-sanitizing test (modified EPA Protocol #01-1A, 3 wear cycles); format: cell-based; details: 150 microliters
# Procedure: In order to substantiate 24 hour long-term sanitization claims with the United States Environmental Protection Agency (EPA), compositions are evaluated with the residual self-sanitization (RSS) method, EPA Protocol #01-1A (https://www.epa.gov/sites/production/files/2015-09/documents/cloroxpcol_final.pdf). For validating longer term disinfection, all extant test protocols emulate the maximum amount of recontamination and abrasion by touching and wiping anticipated before reapplication, typically a 24 hour period. An intermediate protocol with approximately half the level abrasion and re-soiling challenge to a surface is presented here as the “RSS-12 h” test protocol.
# Long lasting disinfection claims are substantiated by the RSS test, which challenges the applied composition by subjecting it to recontamination (re-inoculation with microorganisms) and abrasion (wear cycles). An intermediate test protocol, with approximately half the number of re-inoculations and wear cycles (“RSS-12 h”) is used to predict disinfection that is durable up to 12 hours before reapplication of the test product. As outlined in FIG. 1, this procedure requires preparation of the test bacterial (microbial) culture over the first week (see EPA Protocol #01-1A) followed by testing in week 2.
# The testing involves inoculating the surface with bacteria, followed by application of the product on the substrate and allowing it to dry. The substrate may be glass, polycarbonate, or steel. This substrate is then subjected to an abrasion—re-inoculation regime of 3 “wear cycles”. The abrasion is conducted with a 1084 gwt. rectangular steel block covered with a cloth with an underlying thin polyurethane-foam layer. Each wear cycle is composed of a “dry” abrasion and a “wet” abrasion, the latter with the cloth cover having been wet with a mist of water using a Preval® sprayer. Each abrasion (dry/wet) is characterized by a back and forth motion of the block across the test substrate. Each abrasion cycle is followed by re-inoculation the surface with a bacterial culture. The RSS-12 h involves a 3-abrasion cycle/3-inoculations test as compared to the full RSS test that outlines a 6-abrasion cycle/6-inoculation test regimen. All other details of the test method are as outlined in the EPA Protocol #01-1A.
# The test substrate is allowed to dry overnight and then finally inoculated again (sanitizer test) for 5 minutes, followed by neutralization of the entire substrate. Surviving bacteria is then harvested off the surface and cultured with serial dilutions on agar plates, allowing colony formation over 24-48 hours. Surviving bacteria are then counted as the number of colonies. […] The bacteria in this test may be substituted for other microorganisms such as fungi or viruses. In an embodiment, microorganisms are selected from gram-positive bacteria (e.g Staphylococcus aureus), gram-negative bacteria (e.g. Enterobacter aerogenes), fungi, enveloped viruses, non-enveloped viruses, and combinations thereof.
# Films prepared from Formula C were evaluated using RSS-12 h protocol as described above, a modified version the residual self-sanitization (RSS) method, EPA Protocol #01-1A. Protocol #01-1A is a method approved by the EPA for measuring long-term sanitization claims (i.e., “kill later” durability claim). Protocol #01-1A, the entire contents of which are incorporated by reference, measures the residual self-sanitizing activity of dried chemical residues (films) on inanimate, hard, non-porous surfaces against bacteria: Staphylococcus aureus, Klebsiella pneumoniae, and/or Enterobacter aerogenes. In particular, surfaces are inoculated, treated with test product, allowed to dry, then abraded under alternating wet and dry conditions, which are interspersed with several re-inoculations. (FIG. 1).
# The test shown in Table 3 was conducted on a steel substrate (1 inch×1 inch) with Enterobacter aerogenes, a gram negative bacteria which is typically more resistant. […]
# Enterobacter aerogenes [2] = assay: RSS-24, EPA Protocol #01-1A residual self-sanitizing activity test (6 abrasion cycles); format: cell-based; details: Table 5, 150 microliters, stainless steel
# Procedure: In order to substantiate 24 hour long-term sanitization claims with the United States Environmental Protection Agency (EPA), compositions are evaluated with the residual self-sanitization (RSS) method, EPA Protocol #01-1A (https://www.epa.gov/sites/production/files/2015-09/documents/cloroxpcol_final.pdf). For validating longer term disinfection, all extant test protocols emulate the maximum amount of recontamination and abrasion by touching and wiping anticipated before reapplication, typically a 24 hour period. An intermediate protocol with approximately half the level abrasion and re-soiling challenge to a surface is presented here as the “RSS-12 h” test protocol. […]
# The test substrate is allowed to dry overnight and then finally inoculated again (sanitizer test) for 5 minutes, followed by neutralization of the entire substrate. […] Surviving bacteria are then counted as the number of colonies. […]
# Formula C was then further evaluated by (EPA) Protocol #01-1A residual self-sanitizing activity test with 6 alternating abrasion cycles (wet and dry each) for a 24 hour claim. […] When evaluated with 150 microliters of Formula C on a (1×1) steel substrate with Enterobacter aerogenes, >3 LR were achieved as required by the test (Table 5), indicating a pass for RSS-24.
# [3] = Table 4, reduced quat content, stainless steel
substance,measurement,setting,value
Triton X-100,Log,"Enterobacter aerogenes [1]; Table 3, log of surviving cfu, stainless steel",6.48
same,Avg. cfu/carrier,"Enterobacter aerogenes [1]; Table 3, stainless steel",3.00E+06 cfu/carrier
same,geom. mean,"Enterobacter aerogenes [1]; Table 3, stainless steel",6.48
same,Avg. cfu/carrier,Enterobacter aerogenes [1]; [3],1.29E+06 cfu/carrier
same,Log,Enterobacter aerogenes [1]; [3],6.11
same,avg. cfu/surface,"Enterobacter aerogenes [1]; stainless steel 1 inch x 1 inch, surviving population after final inoculation, triplicate",3.00E+06 cfu/surface
same,Avg. cfu/carrier,Enterobacter aerogenes [2],1.85E+07 cfu/carrier
same,Log,Enterobacter aerogenes [2],7.27
